The values that follow come from patent US20260124214A1, “HETEROCYCLIC COMPOUNDS FOR USE IN THE TREATMENT OF CANCER” (ARTIOS PHARMA LIMITED, priority 2021, published 2026).

The structures appear in SMILES notation. Counter-ions that a name gives are not always drawn.

This assay deals with T1, Human Polθ polymerase domain (aa1820-2590) (Homo sapiens, UniProt O75417).
T1 construct: Human Polθ polymerase domain (aa1820-2590) was expressed in E. Coli; made in house; host or cells: E. coli
T1 sequence (O75417 1820-2590): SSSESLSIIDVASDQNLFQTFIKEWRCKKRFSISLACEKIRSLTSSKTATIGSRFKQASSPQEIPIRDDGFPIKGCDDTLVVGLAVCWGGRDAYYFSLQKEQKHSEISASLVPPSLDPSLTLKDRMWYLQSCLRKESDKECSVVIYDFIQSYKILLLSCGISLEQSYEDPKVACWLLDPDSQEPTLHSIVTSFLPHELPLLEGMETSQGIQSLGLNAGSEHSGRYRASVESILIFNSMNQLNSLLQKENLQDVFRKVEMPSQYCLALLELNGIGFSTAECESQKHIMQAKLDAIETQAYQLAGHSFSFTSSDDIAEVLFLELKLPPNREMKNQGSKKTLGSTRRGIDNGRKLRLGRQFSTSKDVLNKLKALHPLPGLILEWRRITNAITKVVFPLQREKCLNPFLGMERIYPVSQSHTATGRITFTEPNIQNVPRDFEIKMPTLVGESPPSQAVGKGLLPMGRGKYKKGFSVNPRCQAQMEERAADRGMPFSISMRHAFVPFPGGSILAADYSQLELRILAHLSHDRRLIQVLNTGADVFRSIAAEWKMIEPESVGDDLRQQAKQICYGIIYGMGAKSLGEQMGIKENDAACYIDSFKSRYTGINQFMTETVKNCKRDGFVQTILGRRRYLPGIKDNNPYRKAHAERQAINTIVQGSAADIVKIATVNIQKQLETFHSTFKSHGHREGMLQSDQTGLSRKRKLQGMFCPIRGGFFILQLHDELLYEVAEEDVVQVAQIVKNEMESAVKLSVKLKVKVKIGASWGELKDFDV
Description: Polθ Polymerase Domain WT KI Assay (PicoGreen). As to conditions: 100 nM DNA substrate, 0.156 nM Polθ, initial rates vs inhibitor concentration. The class given is biochemical. On the procedure:
A PicoGreen assay was used to measure the KI values of reversible compounds that inhibit the activity of Polθ in vitro.
Human Polθ polymerase domain (aa1820-2590) was expressed in E. Coli, purified, aliquoted and stored at −80° C. until required. Polθ substrate was generated from a 1.2:1 mix of DNA II Short to DNA II Long to give a final concentration of […] substrate in annealing buffer (20 mM Tris pH 7.5, 50 mM NaCl). The substrate was heated in 50 mL aliquots to 95° C. in a heating block for 5 min before the heating block switched off, the reaction left to cool to rt and stored at −20° C. until required.
Assay measurements were performed with 1× buffer comprising 25 mM Tris pH 7.5, 12.5 mM NaCl, […], 5% (v/v) glycerol, 0.01% v/v Triton x-100, 0.1 mg/ml BSA, 1 mM DTT. […] 100 nL of 23×1:1.5-fold serial dilutions and a DMSO only control were dispensed using the Tecan dispenser into Greiner 384 well black low volume plates (product code 784076). DMSO concentration was maintained at 1% of the final assay volume by back filling with DMSO.
To stop the reaction, 5 μL of a solution containing 25 mM Tris-HCl PH 7.5 and 20 mM EDTA was added at […] (t=0, 15, 30, 60, 90, 120, 150, 180 mins) using the Tempest's time delay function. The plates were covered during the time course to prevent evaporation. After completing the assay, 5 μL of detection reagent (25 mM Tris-HCl pH 7.5 and 2.5% (v/v) PicoGreen) was dispensed into the wells using a Tempest liquid handler (Formulatrix) and plates subsequently read on the CLARIOstar Plus (BMG Labtech) using the default optical settings for fluorescein and the auto gain/focus settings.
All data analysis was carried out using GraphPad Prism V.8 (GraphPad Software Inc, San Diego, CA). Time course data for each inhibitor concentration were fitted to the linear regression model in GraphPad Prism. Any time points where the control (DMSO only) reaction was no longer linear were excluded from the analysis. The initial rates (slopes) obtained from the linear regression were then plotted against inhibitor concentration and fitted to an inhibitor vs. response variable slope (four parameter) model on GraphPad Prism to determine the KI values.
`Cc1cc(C(F)(F)F)cc(N2C(=O)C[C@@H]3CN(Cc4ccc([C@@H]5CCCN5C)cc4)c4c(F)cccc4N(C)C(=O)[C@H]32)n1` (racemic) [Example 125b, (3aR,11aS)-6-Fluoro-10-methyl-1-(6-methyl-4-(trifluoromethyl)pyridin-2-yl)-5-(4-((S/R)-1-methylpyrrolidin-2-yl)benzyl)-1,3a,4,5,10,11a-hexahydro-2H-benzo[b]pyrrolo[2,3-f][1,4]diazocine-2,11(3H)-dione] registered a Ki of 2.48 nM.

In turn, `Cc1cc(C(F)(F)F)cc(N2C(=O)C[C@@H]3CN(C[C@@H](O)CN(C)C)c4c(Cl)cccc4N(C)C(=O)[C@H]32)n1` (racemic) [Example 132a, (3aR,11aS)-6-chloro-5-((S/R)-3-(dimethylamino)-2-hydroxypropyl)-10-methyl-1-(6-methyl-4-(trifluoromethyl)pyridin-2-yl)-1,3a,4,5,10,11a-hexahydro-2H-benzo[b]pyrrolo[2,3-f][1,4]diazocine-2,11(3H)-dione] yielded a Ki of 6.27 nM. Against the preceding compound, the Ki is about 2.5-fold higher. The value for `Cc1cc(C(F)(F)F)cc(N2C(=O)C[C@@H]3CN(C[C@@H](O)CN4CCOCC4)c4c(Cl)cccc4N(C)C(=O)[C@H]32)n1` (racemic) [Example 133a, (3aR,11aS)-6-chloro-5-((S/R)-2-hydroxy-3-morpholinopropyl)-10-methyl-1-(6-methyl-4-(trifluoromethyl)pyridin-2-yl)-1,3a,4,5,10,11a-hexahydro-2H-benzo[b]pyrrolo[2,3-f][1,4]diazocine-2,11(3H)-dione] was 1.47 nM; that for `Cc1cc(C(F)(F)F)cc(N2C(=O)C[C@@H]3CN(CCN4C[C@@H](C)N[C@@H](C)C4)c4c(C)cccc4N(C)C(=O)[C@H]32)n1` (relative stereo) [Example 45, (3aR,11aS)-5-(2-(rel-(3R,5S)-3,5-Dimethylpiperazin-1-yl)ethyl)-6,10-dimethyl-1-(6-methyl-4-(trifluoromethyl)pyridin-2-yl)-1,3a,4,5,10,11a-hexahydro-2H-benzo[b]pyrrolo[2,3-f][1,4]diazocine-2,11(3H)-dione dihydrochloride] was 0.651 nM. In the case of `Cc1cc(C(F)(F)F)cc(N2C(=O)C[C@@H]3CN(C[C@H]4CNC[C@@H]4O)c4c(F)cccc4N(C)C(=O)[C@H]32)n1` (relative stereo) [Example 91, (3aR,11aS)-6-Fluoro-5-(((rel-trans)-4-hydroxypyrrolidin-3-yl)methyl)-10-methyl-1-(6-methyl-4-(trifluoromethyl)pyridin-2-yl)-1,3a,4,5,10,11a-hexahydro-2H-benzo[b]pyrrolo[2,3-f][1,4]diazocine-2,11(3H)-dione] it was 17.3 nM; in that of `Cc1cc(C(F)(F)F)cc(N2C(=O)C[C@@H]3CN(C[C@H]4CCNC[C@H]4C#N)c4c(Cl)cccc4N(C)C(=O)[C@H]32)n1` (relative stereo) [Example 102, (rel-cis)-4-(((3aR,11aS)-6-Chloro-10-methyl-1-(6-methyl-4-(trifluoromethyl)pyridin-2-yl)-2,11-dioxo-1,2,3,3a,4,10,11,11a-octahydro-5H-benzo[b]pyrrolo[2,3-f][1,4]diazocin-5-yl)methyl)piperidine-3-carbonitrile hydrochloride], 1.77 nM. In the case of `Cc1cc(C(F)(F)F)cc(N2C(=O)CC3CN(C4CC(OCc5ccccc5)C4)c4c(F)cccc4N(C)C(=O)C32)n1` (single isomer, unassigned) [Example 92a] it was 9.06 nM. For `Cc1cc(C(F)(F)F)cc(N2C(=O)C[C@@H]3CN(C4CC(OCc5ccccc5)C4)c4c(F)cccc4N(C)C(=O)[C@H]32)n1` (single isomer, unassigned) [Example 92b], the Ki was determined as 14.7 nM. The value for `Cc1cc(C(F)(F)F)cc(N2C(=O)C[C@@H]3CN(Cc4cn5c(n4)C(C)N(C)CC5)c4c(Cl)cccc4N(C)C(=O)[C@H]32)n1` (single isomer, unassigned) [Example 96a] was 1.45 nM; that for `Cc1cc(C(F)(F)F)cc(N2C(=O)C[C@@H]3CN(CC4CCCCN4)c4c(Cl)cccc4N(C)C(=O)[C@H]32)n1` (single isomer, unassigned) [Example 105a] was 8.57 nM.
